This is an account of results in patent US12435087B2, “Modulators of DCN-1 and methods of use thereof” (Cellarity, Inc., priority 2023, dated 2025).

This assay concerns the target DCN1 (DCUND1) protein PONY domain (Homo sapiens (Human), UniProt Q96GG9). The assay can be described thus: TR-FRET assay (binding to DCN-1, displacement of FAM-labeled probe). The gist of the method: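 Compounds read at 1, 5 and 24 h, 0.1% final DMSO, by TR-FRET between terbium-streptavidin on biotinylated DCN1 PONY domain (E. coli) and a FAM-tagged non-covalent inhibitor probe. Two setups used, 5 nM protein with 20 nM labelled probe, or 0.31 nM protein with 100 nM labelled plus 800 nM unlabelled probe; buffer had TritonX and 200 mM NaCl. % activity relative to high (with probe) and low (without probe) controls.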

Where [1] appears, read: 24 hr after treatment with compound, read-out: TR FRET IC50 24 hr.
Where [2] appears, read: TR FRET IC50 1 hr (nM), 1 hr after treatment with compound.
[3] abbreviates: read-out: TR FRET IC50 1 hr, 1 hr after treatment with compound.

Read-outs that look alike come from different tables or passages of the source.

As usually defined, the IC50 is the concentration at which inhibition is half-maximal.

Chain of DCN1 (DCUND1) protein PONY domain (Q96GG9 60-248): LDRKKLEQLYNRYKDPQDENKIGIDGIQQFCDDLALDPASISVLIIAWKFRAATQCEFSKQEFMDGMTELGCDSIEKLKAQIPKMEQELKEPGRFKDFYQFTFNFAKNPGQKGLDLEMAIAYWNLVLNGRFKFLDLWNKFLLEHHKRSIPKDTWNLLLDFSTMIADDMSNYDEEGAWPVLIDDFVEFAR

Regarding `CCN1C(=O)[C@@H](NC(=O)c2cccc(C(F)(F)F)c2)[C@H](c2cccc(CNC(=O)C3=CCC3)c2)c2cnn(-c3ccccc3)c21` (racemic) [Compound I-126], the IC50 by setting is: under setting [1], 1000 to 3000 nM; under setting [2], 1000 to 3000 nM.
`CCN1C(=O)[C@@H](NC(=O)c2nccc(C(F)(F)F)n2)[C@H](c2cccc(C(=O)N3CCC[C@H]3C#N)c2)c2cnn(-c3ccccc3)c21` [Compound I-249]: the IC50 reads like this: under setting [1], 1000 to 3000 nM; under setting [2], 1000 to 3000 nM.
On to `C=C(CN1CC2CC(C1)O2)C(=O)N(C)Cc1cccc([C@@H]2c3cnn(-c4ccccc4)c3N(CC)C(=O)[C@H]2NC(=O)c2ccn(C(F)(F)F)n2)c1` [Compound I-253], for which the IC50 is, setting by setting: under setting [1], no more than 200 nM; under setting [2], 1000 to 3000 nM.
In the case of `CCN1C(=O)[C@@H](NC(=O)c2cccc(C(F)(F)F)c2)[C@H](c2ccc(F)c(NC(=O)/C=C/CN(C)C)c2)c2cnn(-c3ccccc3)c21` [Compound I-32], the IC50 by setting is: under setting [1], no more than 200 nM; under setting [2], 1000 to 3000 nM.
On to `C=C(CN1CC(F)(F)C1)C(=O)NCc1cccc([C@@H]2c3cnn(-c4ccccc4)c3N(CC)C(=O)[C@H]2NC(=O)c2nccc(C(F)(F)F)n2)c1` [Compound I-261], for which the half-maximal inhibitory concentration (IC50) by setting is: under setting [1], no more than 200 nM; under setting [2], 200 to 1000 nM.
The like results for `CCN1C(=O)[C@@H](NC(=O)c2cccc(C(F)(F)F)c2)[C@H](c2ccccc2CN(C)C#N)c2cnn(-c3ccccc3)c21` (racemic) [Compound I-49] were, in that order, 1000 to 3000 nM and 1000 to 3000 nM.
With `C=C(CN(C)C1COC1)C(=O)Nc1cccc([C@H]2c3c(C)nn(-c4ccccc4)c3N(CC)C(=O)[C@@H]2NC(=O)c2cccc(C(F)(F)F)c2)c1` (racemic) [Compound I-3], the IC50 was no more than 200 nM under setting [1] and no more than 200 nM under setting [3].
In the case of `C=C(CN1CC(O)C1)C(=O)NCc1cccc([C@@H]2c3cnn(-c4ccccc4)c3N(CC)C(=O)[C@H]2NC(=O)c2cccc(C(F)(F)F)c2)c1` [Compound I-291], the IC50 reads like this: under setting [1], no more than 200 nM; under setting [3], no more than 200 nM.
As to `C=C(CN1CCOCC1)C(=O)N[C@H](C)c1cccc([C@@H]2c3cnn(-c4ccccc4)c3N(CC)C(=O)[C@H]2NC(=O)c2nccc(C(F)(F)F)n2)c1` (mixture of isomers) [Compound I-281], the IC50 runs as follows: under setting [1], 200 to 1000 nM; under setting [2], 1000 to 3000 nM.
As to `C=C(CN1CC2CCC1CO2)C(=O)NCc1cccc([C@@H]2c3cnn(-c4ccccc4)c3N(CC)C(=O)[C@H]2NC(=O)c2cccc(C(F)(F)F)c2)c1` (some centres unmarked) [Compound I-293], the IC50 reads like this: under setting [1], no more than 200 nM; under setting [3], no more than 200 nM.
Regarding `C=C(CN1CCC12COC2)C(=O)NCc1cccc([C@@H]2c3cnn(-c4ccccc4)c3N(CC)C(=O)[C@H]2NC(=O)c2nccc(C(F)(F)F)n2)c1` [Compound I-246], the IC50 is, setting by setting: under setting [1], no more than 200 nM; under setting [3], no more than 200 nM.
Take `CCN1C(=O)[C@H](NC(=O)c2cccc(C(F)(F)F)c2)[C@@H](c2cccc(CNC(=O)C3=CCN(C)C3)c2)c2cnn(-c3ccccc3)c21` [Compound I-128]: the IC50 is, setting by setting: under setting [1], 1000 to 3000 nM; under setting [2], 1000 to 3000 nM.
For the molecule `C=C(CN1CC2(CCC2O)C1)C(=O)NCc1cccc([C@@H]2c3cnn(-c4ccccc4)c3N(CC)C(=O)[C@H]2NC(=O)c2cccc(C(F)(F)F)c2)c1` (some centres unmarked) [Compound I-375], the IC50 runs as follows: under setting [1], no more than 200 nM; under setting [3], no more than 200 nM.
Consider `C=C(C(=O)NCc1cccc([C@@H]2c3cnn(-c4ccccc4)c3N(CC)C(=O)[C@H]2NC(=O)c2csc(C)n2)c1)C(C)N(C)C1COC1` (some centres unmarked) [Compound I-278], for which the IC50 under setting [1] is no more than 200 nM and the 50% inhibitory concentration (IC50) under setting [3] was no more than 200 nM.
Consider `C=C(CN1C[C@@H]2C[C@H]1CO2)C(=O)NCc1cccc([C@@H]2c3cnn(-c4ccccc4)c3N(CC)C(=O)[C@@H]2NC(=O)c2cccc(C(F)(F)F)c2)c1` [Compound I-144], for which the IC50 is, setting by setting: under setting [1], 200 to 1000 nM; under setting [2], 1000 to 3000 nM.
Regarding `CCN1C(=O)[C@H](NC(=O)c2cccc(C(F)(F)F)c2)[C@@H](c2cccc(CNC(=O)C3=C(C(=O)OC)CCC3)c2)c2cnn(-c3ccccc3)c21` [Compound I-119], the IC50 is, setting by setting: under setting [1], 1000 to 3000 nM; under setting [2], 1000 to 3000 nM.
As for `CC#CC(=O)N(C)c1ccccc1[C@H]1c2cnn(-c3ccccc3)c2N(CC)C(=O)[C@@H]1NC(=O)c1cccc(C(F)(F)F)c1` (racemic) [Compound I-98, ˜{N}—[˜{rac}-(4˜{S},5˜{R})-4-[2-[but-2-ynoyl(methyl)amino]phenyl]-7-ethyl-6-oxo-1-phenyl-4,5-dihydropyrazolo[3,4-b]pyridin-5-yl]-3-(trifluoromethyl)benzamide], the IC50 lay within 1000 to 3000 nM under setting [1] and 1000 to 3000 nM under setting [2].
In the case of `C/C=C(\CN(C)C1COC1)C(=O)NCc1cccc([C@@H]2c3cnn(-c4ccccc4)c3N(CC)C(=O)[C@H]2NC(=O)c2ccn(C(F)(F)F)n2)c1` [Compound I-248], the IC50 is, setting by setting: under setting [1], no more than 200 nM; under setting [2], 200 to 1000 nM.
On the same counts, the results for `CCN1C(=O)[C@@H](NC(=O)c2cccc(C(F)(F)F)c2)[C@H](c2cccc(CNC#N)c2)c2cnn(-c3ccccc3)c21` (racemic) [Compound I-29] are 1000 to 3000 nM and 1000 to 3000 nM.
As to `C/C=C(\CN1CC2(COC2)C1)C(=O)N(C)Cc1cccc([C@@H]2c3cnn(-c4ccccc4)c3N(CC)C(=O)[C@H]2NC(=O)c2ccn(C(F)(F)F)n2)c1` [Compound I-321], the IC50 runs as follows: under setting [1], 1000 to 3000 nM; under setting [2], 1000 to 3000 nM.
As for `C=C(CN1CCOCC1)C(=O)NCc1cccc([C@H]2c3c(C)nn(-c4ccccc4)c3N(CC)C(=O)[C@@H]2NC(=O)c2cccc(C(F)(F)F)c2)c1` [Compound I-285], the IC50 under setting [1] is no more than 200 nM and the IC50 under setting [2] lay in the range of 1000 to 3000 nM.
For `C=C(CC(=O)OC)C(=O)NCc1cccc([C@@H]2c3cnn(-c4ccccc4)c3N(CC)C(=O)[C@H]2NC(=O)c2cccc(C(F)(F)F)c2)c1` [Compound I-50], the IC50 runs as follows: under setting [1], no more than 200 nM; under setting [2], 1000 to 3000 nM.
On to `C=C(CN1CCC1)C(=O)NCc1cccc([C@H]2c3c(C)nn(-c4ccccc4)c3N(CC)C(=O)[C@@H]2NC(=O)c2cccc(C(F)(F)F)c2)c1` [Compound I-374], for which the IC50 reads like this: under setting [1], 200 to 1000 nM; under setting [2], 200 to 1000 nM.
`CCN1C(=O)[C@@H](NC(=O)c2nccc(C(F)(F)F)n2)[C@H](c2cccc(NC(=O)C3=CCN(C)C3)c2)c2c(C)nn(-c3ccccc3)c21` [Compound I-37]: the concentration for half-maximal inhibition (IC50) under setting [1] was no more than 200 nM and the IC50 under setting [3] is no more than 200 nM.
As to `C=C(CN1CCN(C2COC2)CC1)C(=O)NCc1cccc([C@@H]2c3cnn(-c4ccccc4)c3N(CC)C(=O)[C@H]2NC(=O)c2nccc(C(F)(F)F)n2)n1` [Compound I-354], the IC50 is, setting by setting: under setting [1], 1000 to 3000 nM; under setting [2], 1000 to 3000 nM.
Consider `CCN1C(=O)[C@H](NC(=O)c2cccc(C(F)(F)F)c2)[C@@H](c2cccc(NC(=O)C3CCC3)c2)c2c(C)nn(-c3ccccc3)c21` (racemic) [Compound I-123], for which the IC50 lay within 1000 to 3000 nM under setting [1] and 1000 to 3000 nM under setting [2].
Consider `C/C=C(\CN1CCOCC1)C(=O)NCc1cccc([C@H]2c3cnn(-c4ccccc4)c3N(CC)C(=O)[C@@H]2NC(=O)c2cccc(C(F)(F)F)c2)c1` [Compound I-115], for which the IC50 fell in the range of 1000 to 3000 nM under setting [1] and 1000 to 3000 nM under setting [2].
Turning to `CCN1C(=O)[C@@H](NC(=O)c2cccc(C(F)(F)F)c2)[C@H](c2cccc(CN(C)C/C=C/C(=O)N(C)C)c2)c2cnn(-c3ccccc3)c21` [Compound I-339], the IC50 is 1000 to 3000 nM under setting [1] and 1000 to 3000 nM under setting [2].
